Data published in US20090069300A1, “ISOQUINOLINYL AND ISOINDOLINYL DERIVATIVES AS HISTAMINE-3 ANTAGONISTS” (Wyeth, priority 2007, published 2009).
Counter-ions that a name gives are not always drawn.

Structure (SMILES)	melting point
N#Cc1ccc(-c2ccc3c(c2)CCN(CCCN2CCCCC2)C3=O)cc1 (as salt: hydrochloride) [Example 45, 4-[1-oxo-2-(3-piperidin-1-ylpropyl)-1,2,3,4-tetrahydroisoquinolin-6-yl]benzonitrile hydrochloride]	249 to 250 °C
N#Cc1ccc(Oc2ccc3c(c2)CCN(CCN2CCCC2)C3=O)nc1 (as salt: hydrochloride) [Example 47, 6-{[1-oxo-2-(2-pyrrolidin-1-ylethyl)-1,2,3,4-tetrahydroisoquinolin-6-yl]oxy}nicotinonitrile]	189 to 190 °C
C[C@@H]1CCCN1CCN1CCc2cc(Oc3ccc(C#N)cn3)ccc2C1=O (as salt: hydrochloride) [Example 48, 6-[(2-{2-[(2R)-2-methylpyrrolidin-1-yl]ethyl}-1-oxo-1,2,3,4-tetrahydroisoquinolin-6-yl)oxy]nicotinonitrile]	184 to 185 °C
C[C@@H]1CCCN1CCN1CCc2cc(Oc3ccc(C#N)cc3)ccc2C1=O (as salt: hydrochloride) [Example 49, 4-[(2-{2-[(2R)-2-methylpyrrolidin-1-yl]ethyl}-1-oxo-1,2,3,4-tetrahydroisoquinolin-6-yl)oxy]benzonitrile]	254 to 255 °C
N#Cc1ccc(Oc2ccc3c(c2)CCN(CCN2CCCC2)C3=O)cc1 (as salt: hydrochloride) [Example 50, 4-{[1-oxo-2-(2-pyrrolidin-1-ylethyl)-1,2,3,4-tetrahydroisoquinolin-6-yl]oxy}benzonitrile]	146 to 147 °C
C[C@@H]1CCCN1CCN1CCc2cc(Oc3ccc(C#N)nc3)ccc2C1=O (as salt: hydrochloride) [Example 51, 5-[(2-{2-[(2R)-2-methylpyrrolidin-1-yl]ethyl}-1-oxo-1,2,3,4-tetrahydroisoquinolin-6-yl)oxy]pyridine-2-carbonitrile]	218 to 220 °C
N#Cc1ccc(Oc2ccc3c(c2)CCN(CCN2CCCC2)C3=O)cn1 (as salt: hydrochloride) [Example 52, 5-{[1-oxo-2-(2-pyrrolidin-1-ylethyl)-1,2,3,4-tetrahydroisoquinolin-6-yl]oxy}pyridine-2-carbonitrile]	203 to 205 °C
O=C(c1ccc(-c2ccc3c(c2)CCN(CCN2CCCC2)C3=O)cc1)N1CCCC1 (as salt: hydrochloride) [Example 54, 6-[4-(pyrrolidin-1-ylcarbonyl)phenyl]-2-(2-pyrrolidin-1-ylethyl)-3,4-dihydroisoquinolin-1(2H)-one hydrochloride]	245 to 248 °C
O=C(NC1CC1)c1ccc(-c2ccc3c(c2)CCN(CCN2CCCC2)C3=O)cc1 (as salt: hydrochloride) [Example 57, N-cyclopropyl-4-[1-oxo-2-(2-pyrrolidin-1-ylethyl)-1,2,3,4-tetrahydroisoquinolin-6-yl]benzamide]	222 to 224 °C
CNC(=O)c1ccc(-c2ccc3c(c2)CCN(CCN2CCCC2)C3=O)cc1 (as salt: hydrochloride) [Example 59, N-methyl-4-[1-oxo-2-(2-pyrrolidin-1-ylethyl)-1,2,3,4-tetrahydroisoquinolin-6-yl]benzamide]	235 to 236 °C
O=C(NCC1CC1)c1ccc(-c2ccc3c(c2)CCN(CCN2CCCC2)C3=O)cc1 (as salt: hydrochloride) [Example 60, N-(cyclopropylmethyl)-4-[1-oxo-2-(2-pyrrolidin-1-ylethyl)-1,2,3,4-tetrahydroiso-quinolin-6-yl]benzamide]	216 to 218 °C
CC(C)NC(=O)c1ccc(-c2ccc3c(c2)CCN(CCN2CCCC2)C3=O)cc1 (as salt: hydrochloride) [Example 61, N-isopropyl-4-[1-oxo-2-(2-pyrrolidin-1-ylethyl)-1,2,3,4-tetrahydroisoquinolin-6-yl]benzamide]	257 to 259 °C
CCN(CC)C(=O)c1ccc(-c2ccc3c(c2)CCN(CCN2CCCC2)C3=O)cc1 (as salt: hydrochloride) [Example 62, N,N-diethyl-4-[1-oxo-2-(2-pyrrolidin-1-ylethyl)-1,2,3,4-tetrahydroisoquinolin-6-yl]benzamide]	177 to 178 °C
O=C(NC1CCC1)c1ccc(-c2ccc3c(c2)CCN(CCN2CCCC2)C3=O)cc1 (as salt: hydrochloride) [Example 63, N-cyclobutyl-4-[1-oxo-2-(2-pyrrolidin-1-ylethyl)-1,2,3,4-tetrahydroisoquinolin-6-yl]benzamide]	255 to 258 °C
O=C(c1ccc(-c2ccc3c(c2)CCN(CCN2CCCC2)C3=O)cc1)N1CCC1 (as salt: hydrochloride) [Example 64, 6-[4-(azetidin-1-ylcarbonyl)phenyl]-2-(2-pyrrolidin-1-ylethyl)-3,4-dihydroisoquinolin-1(2H)-one]	229 to 230 °C
CCN(CC)C(=O)c1ccc(-c2ccc3c(c2)CCN(CCN2CCC[C@H]2C)C3=O)cc1 (as salt: hydrochloride) [Example 65, N,N-diethyl-4-(2-{2-[(2R)-2-methylpyrrolidin-1-yl]ethyl}-1-oxo-1,2,3,4-tetrahydroisoquinolin-6-yl)benzamide]	221 to 222 °C
C[C@@H]1CCCN1CCN1CCc2cc(-c3ccc(C(=O)N4CCCC4)cc3)ccc2C1=O (as salt: hydrochloride) [Example 66, 2-{2-[(2R)-2-methylpyrrolidin-1-yl]ethyl}-6-[4-(pyrrolidin-1-ylcarbonyl)phenyl]-3,4-dihydroisoquinolin-1(2H)-one]	243 to 244 °C
NC(=O)c1ccc(-c2ccc3c(c2)CCN(CCN2CCCC2)C3=O)cc1 (as salt: hydrochloride) [Example 67, 4-[1-oxo-2-(2-pyrrolidin-1-ylethyl)-1,2,3,4-tetrahydroisoquinolin-6-yl]benzamide]	268 to 270 °C
O=C(NCCF)c1ccc(-c2ccc3c(c2)CCN(CCN2CCCC2)C3=O)cc1 (as salt: hydrochloride) [Example 68, N-(2-fluoroethyl)-4-[1-oxo-2-(2-pyrrolidin-1-ylethyl)-1,2,3,4-tetrahydroisoquinolin-6-yl]benzamide]	215 to 216 °C
COCCNC(=O)c1ccc(-c2ccc3c(c2)CCN(CCN2CCCC2)C3=O)cc1 (as salt: hydrochloride) [Example 69, N-(2-methoxyethyl)-4-[1-oxo-2-(2-pyrrolidin-1-ylethyl)-1,2,3,4-tetrahydroisoquinolin-6-yl]benzamide]	178 to 180 °C

Further lines, results first:

melting point	Structure (SMILES)
164 to 166 °C	CC(C)OCCNC(=O)c1ccc(-c2ccc3c(c2)CCN(CCN2CCCC2)C3=O)cc1 (as salt: hydrochloride) [Example 70, N-(2-isopropoxyethyl)-4-[1-oxo-2-(2-pyrrolidin-1-ylethyl)-1,2,3,4-tetrahydroisoquinolin-6-yl]benzamide]
123 to 130 °C	O=C(NCCOc1ccccc1)c1ccc(-c2ccc3c(c2)CCN(CCN2CCCC2)C3=O)cc1 (as salt: hydrochloride) [Example 71, 4-[1-oxo-2-(2-pyrrolidin-1-ylethyl)-1,2,3,4-tetrahydroisoquinolin-6-yl]-N-(2-phenoxyethyl)-benzamide]
193 to 195 °C	CCOCCNC(=O)c1ccc(-c2ccc3c(c2)CCN(CCN2CCCC2)C3=O)cc1 (as salt: hydrochloride) [Example 72, N-(2-ethoxyethyl)-4-[1-oxo-2-(2-pyrrolidin-1-ylethyl)-1,2,3,4-tetrahydroisoquinolin-6-yl]benzamide]
188 to 190 °C	C[C@@H]1CCCN1CCN1CCc2cc(-c3ccc(C(=O)NCC4CC4)cc3)ccc2C1=O (as salt: hydrochloride) [Example 73, N-(cyclopropylmethyl)-4-(2-{2-[(2R)-2-methylpyrrolidin-1-yl]ethyl}-1-oxo-1,2,3,4-tetrahydroisoquinolin-6-yl)benzamide]
210 to 211 °C	C[C@@H]1CCCN1CCN1CCc2cc(-c3ccc(C(=O)NC4CCC4)cc3)ccc2C1=O (as salt: hydrochloride) [Example 74, N-cyclobutyl-4-(2-{2-[(2R)-2-methylpyrrolidin-1-yl]ethyl}-1-oxo-1,2,3,4-tetrahydroisoquinolin-6-yl)benzamide]
228 to 230 °C	CCNC(=O)c1ccc(-c2ccc3c(c2)CCN(CCN2CCC[C@H]2C)C3=O)cc1 (as salt: hydrochloride) [Example 75, N-ethyl-4-(2-{2-[(2R)-2-methylpyrrolidin-1-yl]ethyl}-1-oxo-1,2,3,4-tetrahydroisoquinolin-6-yl)benzamide]
255 to 257 °C	C[C@@H]1CCCN1CCN1CCc2cc(-c3ccc(C(=O)NC4CC4)cc3)ccc2C1=O (as salt: hydrochloride) [Example 76, N-cyclopropyl-4-(2-{2-[(2R)-2-methylpyrrolidin-1-yl]ethyl}-1-oxo-1,2,3,4-tetrahydroisoquinolin-6-yl)benzamide]
188 to 189 °C	CC(C)NC(=O)c1ccc(-c2ccc3c(c2)CCN(CCN2CCC[C@H]2C)C3=O)cc1 (as salt: hydrochloride) [Example 77, N-isopropyl-4-(2-{2-[(2R)-2-methylpyrrolidin-1-yl]ethyl}-1-oxo-1,2,3,4-tetrahydroisoquinolin-6-yl)benzamide]
258 to 260 °C	CNC(=O)c1ccc(-c2ccc3c(c2)CCN(CCN2CCC[C@H]2C)C3=O)cc1 (as salt: hydrochloride) [Example 78, N-methyl-4-(2-{2-[(2R)-2-methylpyrrolidin-1-yl]ethyl}-1-oxo-1,2,3,4-tetrahydroisoquinolin-6-yl)benzamide]
240 to 241 °C	O=C(c1ccc(-c2ccc3c(c2)CCN(CCN2CCCC2)C3=O)cc1)N1CCCCC1 (as salt: hydrochloride) [Example 79, 6-[4-(piperidin-1-ylcarbonyl)phenyl]-2-(2-pyrrolidin-1-ylethyl)-3,4-dihydroisoquinolin-1(2H)-one]
260 to 262 °C	C[C@@H]1CCCN1CCN1CCc2cc(-c3ccc(C(=O)NC4CCCC4)cc3)ccc2C1=O (as salt: hydrochloride) [Example 80, N-cyclopentyl-4-(2-{2-[(2R)-2-methylpyrrolidin-1-yl]ethyl}-1-oxo-1,2,3,4-tetrahydroisoquinolin-6-yl)benzamide]
